Our source for the logP values is the SangsterLogP compilation.

The structures appear in SMILES notation.

Assay in one series: not given
In turn, `Nc1ccc(S(=O)(=O)c2ccc(Br)cc2)cc1` yielded a lipophilicity (logP) of 3.15.
Take `COc1ccc(S(=O)(=O)c2ccc(N)cc2)c(OC)c1`: the log partition coefficient (logP) worked out at 1.65.
Regarding `NS(=O)(=O)c1ccc(S(N)(=O)=O)cc1`, the logP was -0.7.
The same measure, in the same setting: under `COC(=O)c1ccc(S(=O)(=O)c2ccc(N)cc2)cc1` stands 2.13; under `Cc1ccc(S(N)(=O)=O)cc1`, 0.83.
The molecule `CN(C)c1ccc(S(=O)(=O)c2ccc(N)cc2)cc1` showed a logP of 1.93.
The molecule `Cc1ccc(S(=O)(=O)c2ccc(N)cc2)c(C)c1` had a logP of 2.69.
`CC(=O)c1ccc(S(N)(=O)=O)cc1` displayed a logP of 0.31.
`NC(=O)c1ccc(S(N)(=O)=O)cc1`: the log partition coefficient (logP) was -0.66.
In turn, `NC(=O)c1cccc(S(N)(=O)=O)c1` gave a logP of -0.55.
As for `COc1cccc(S(N)(=O)=O)c1`, the logP was 0.65.
Turning to `N#Cc1cccc(S(N)(=O)=O)c1`, the logP came to 0.27.
As to `Nc1ccc(S(=O)(=O)c2ccccc2)cc1`, the logP worked out at 1.84.
`Nc1ccc(S(=O)(=O)c2ccc([N+](=O)[O-])cc2)cc1` came in with a lipophilicity (logP) of 2.03. This logP and that of the molecule before are within 0.2 log units of each other.
The same measure, in the same setting: under `NS(=O)(=O)c1ccccc1` stands 0.33.
`NS(=O)(=O)c1cccc([N+](=O)[O-])c1` came in with a logP of 0.6.
The same measure, in the same setting: under `N#Cc1ccc(S(N)(=O)=O)cc1` stands 0.4; under `Nc1ccc(S(=O)(=O)c2ccc([N+](=O)[O-])cc2[N+](=O)[O-])cc1`, 1.84.

A short description of the next series: method code SF-AS, from DOI: 10.1111/j.2042-7158.1991.tb06664.x, PMID: 1675277.
Molecule `COc1cc(OC)c(S(=O)(=O)c2ccc(N)cc2)c(OC)c1` yielded a logP of 1.03.
The molecule `Nc1ccc(S(=O)(=O)c2ccc(Cl)cc2)cc1` showed a logP of 2.57.
Turning to `N#Cc1ccc(S(=O)(=O)c2ccc(N)cc2)cc1`, the logP is 1.63.
On the same count and under the same terms, as for `Nc1ccc(S(=O)(=O)c2ccc(N)cc2N)cc1`, the figure is 0.38; as for `CCN(CC)C(=O)c1ccc(S(=O)(=O)c2ccc(N)cc2)cc1`, 1.44.
Same read-out and setting: as for `Nc1ccc(S(=O)(=O)c2ccccc2N)cc1`, the figure is 1.56; as for `Nc1ccc(S(=O)(=O)c2cccc(N)c2)cc1`, 1.03; as for `Cc1cc(C)c(S(=O)(=O)c2ccc(N)cc2)c(C)c1`, 3.06.
The molecule `Nc1ccc(S(=O)(=O)c2c(O)cc(O)cc2O)cc1` displayed a lipophilicity (logP) of 1.53.
As for `Cc1ccc(S(=O)(=O)c2ccc(N)cc2)cc1`, the log partition coefficient (logP) stood at 2.4.
Molecule `Nc1ccc(S(=O)(=O)c2ccc(F)cc2)cc1` registered a logP of 2.01.
On the same count and under the same terms, as for `CC(=O)c1ccc(S(=O)(=O)c2ccc(N)cc2)cc1`, the figure is 1.67; as for `Nc1ccc(S(=O)(=O)c2ccc(Cl)cc2Cl)cc1`, 3.12; as for `Nc1ccc(S(=O)(=O)c2ccc(O)cc2)cc1`, 1.57.
As to `Nc1ccc(S(=O)(=O)c2ccc(NO)cc2)cc1`, the log partition coefficient (logP) was 0.88.
For the molecule `CCNc1ccc(S(=O)(=O)c2ccc(N)cc2)cc1`, the log partition coefficient (logP) was 1.98.
For `CCN(CC)c1ccc(S(=O)(=O)c2ccc(N)cc2)cc1`, the logP amounted to 3.
In turn, `Nc1ccc(S(=O)(=O)c2ccc(O)cc2O)cc1` returned a logP of 1.29.
For `NC(=O)c1ccc(S(=O)(=O)c2ccc(N)cc2)cc1`, the lipophilicity (logP) came to 0.9.
Take `COc1ccc(S(=O)(=O)c2ccc(N)cc2)cc1`: the logP came to 1.96.
